Where a SMILES comes first, the peptide text is derived from it. The star is where a group is joined. CF3 = FC(F)(F)*; Moc = COC(=O)*

By Ki is commonly meant the dissociation constant of the complex between target and ligand, obtained from inhibition or displacement. High values mean weaker binding, low ones tighter binding. What is called Tmax is the time at which the peak concentration occurs. By bioavailability is commonly meant dose-corrected exposure relative to a reference, in per cent.

One data set deals with T1, Neutrophil elastase (Homo sapiens, UniProt P08246).
T1 sequence (P08246 whole entry): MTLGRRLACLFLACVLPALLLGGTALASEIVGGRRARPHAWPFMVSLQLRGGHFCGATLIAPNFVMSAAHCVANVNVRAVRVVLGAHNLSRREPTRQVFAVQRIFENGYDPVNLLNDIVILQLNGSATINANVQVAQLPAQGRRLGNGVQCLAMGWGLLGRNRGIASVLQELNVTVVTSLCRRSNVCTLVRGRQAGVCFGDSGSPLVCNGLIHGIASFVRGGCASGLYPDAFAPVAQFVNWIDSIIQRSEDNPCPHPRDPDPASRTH
The data set is described as follows: Binding affinity for human leukocyte elastase.

Another data set has as its target T2, Monoamine oxidase (Homo sapiens, UniProt P21397+P27338).
T2 sequence (P21397 whole entry): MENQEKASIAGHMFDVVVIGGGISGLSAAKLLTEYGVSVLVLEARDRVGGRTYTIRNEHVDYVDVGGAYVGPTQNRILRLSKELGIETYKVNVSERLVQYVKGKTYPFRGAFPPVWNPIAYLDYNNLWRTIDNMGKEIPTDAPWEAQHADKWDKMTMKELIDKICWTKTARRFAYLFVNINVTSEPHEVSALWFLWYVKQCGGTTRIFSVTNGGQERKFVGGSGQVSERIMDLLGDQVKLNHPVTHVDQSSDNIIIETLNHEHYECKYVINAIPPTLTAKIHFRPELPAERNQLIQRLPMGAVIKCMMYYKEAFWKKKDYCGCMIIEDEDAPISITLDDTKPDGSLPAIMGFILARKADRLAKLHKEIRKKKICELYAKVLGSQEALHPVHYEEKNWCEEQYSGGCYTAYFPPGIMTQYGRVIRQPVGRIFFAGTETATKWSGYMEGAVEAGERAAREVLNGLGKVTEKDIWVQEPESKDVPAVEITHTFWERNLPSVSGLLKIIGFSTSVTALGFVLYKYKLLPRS
T2 sequence (P27338 whole entry): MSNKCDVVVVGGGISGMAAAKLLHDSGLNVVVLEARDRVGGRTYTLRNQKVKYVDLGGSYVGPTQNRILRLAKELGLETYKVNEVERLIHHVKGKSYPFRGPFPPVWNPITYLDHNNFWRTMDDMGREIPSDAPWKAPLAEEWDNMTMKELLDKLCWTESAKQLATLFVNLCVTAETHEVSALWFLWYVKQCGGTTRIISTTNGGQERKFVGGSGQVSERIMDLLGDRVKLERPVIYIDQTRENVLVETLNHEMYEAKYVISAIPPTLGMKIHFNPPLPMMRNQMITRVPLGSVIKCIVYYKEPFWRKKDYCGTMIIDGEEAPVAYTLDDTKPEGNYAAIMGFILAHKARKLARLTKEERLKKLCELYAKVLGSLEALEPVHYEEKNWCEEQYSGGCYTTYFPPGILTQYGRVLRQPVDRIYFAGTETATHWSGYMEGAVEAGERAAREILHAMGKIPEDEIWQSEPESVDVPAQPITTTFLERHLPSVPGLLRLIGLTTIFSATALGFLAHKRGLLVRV
In words: Binding affinity for human plasma monoamine oxidase; No inhibition at 188 uM (highest concentration tested). The format is cell-free.

For a further data set, the target named is T3, Cathepsin G (Homo sapiens, UniProt P08311).
T3 sequence (P08311 whole entry): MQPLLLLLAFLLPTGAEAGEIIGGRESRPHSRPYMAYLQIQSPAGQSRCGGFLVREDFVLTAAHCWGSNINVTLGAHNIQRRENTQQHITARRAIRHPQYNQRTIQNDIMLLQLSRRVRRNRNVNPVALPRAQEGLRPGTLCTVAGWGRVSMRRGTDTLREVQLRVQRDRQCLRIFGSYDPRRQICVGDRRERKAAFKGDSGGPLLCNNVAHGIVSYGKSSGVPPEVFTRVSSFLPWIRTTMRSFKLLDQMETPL
In words: Binding affinity for human leukocyte cathepsin G; No inhibition at 188 uM (highest concentration tested).

Data set [1] in a line: Time of maximum concentration of compound in rat plasma. Type of data set: ADME, organism-based.
Data set [2] deals with T4, Serine protease 1 (Homo sapiens, UniProt P07477). The data set is described as follows: Binding affinity for human pancreatic trypsin.
T4 sequence (P07477 whole entry): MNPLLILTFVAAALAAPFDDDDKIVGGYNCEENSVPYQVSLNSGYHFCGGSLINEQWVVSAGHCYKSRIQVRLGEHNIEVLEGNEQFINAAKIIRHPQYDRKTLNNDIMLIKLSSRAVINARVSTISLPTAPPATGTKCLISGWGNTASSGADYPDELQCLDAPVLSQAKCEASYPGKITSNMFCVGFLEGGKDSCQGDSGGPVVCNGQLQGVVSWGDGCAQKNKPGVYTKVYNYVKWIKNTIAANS
The target in data set [3] is T5, Mast cell carboxypeptidase A (Homo sapiens, UniProt P15088).
T5 sequence (P15088 whole entry): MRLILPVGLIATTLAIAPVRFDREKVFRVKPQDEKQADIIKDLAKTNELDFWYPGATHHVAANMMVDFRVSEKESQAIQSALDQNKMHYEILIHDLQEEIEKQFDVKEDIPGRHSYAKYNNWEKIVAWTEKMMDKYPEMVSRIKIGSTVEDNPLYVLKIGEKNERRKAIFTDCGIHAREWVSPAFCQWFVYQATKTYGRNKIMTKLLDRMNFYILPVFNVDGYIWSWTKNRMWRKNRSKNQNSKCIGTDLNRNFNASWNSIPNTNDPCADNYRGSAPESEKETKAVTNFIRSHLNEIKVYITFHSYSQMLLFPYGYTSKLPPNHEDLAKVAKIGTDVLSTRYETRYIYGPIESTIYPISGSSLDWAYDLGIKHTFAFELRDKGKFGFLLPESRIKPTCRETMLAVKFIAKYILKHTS
The data set is described as follows: Binding affinity for carboxypeptidase A; No inhibition at 188 uM (highest concentration tested).

Data set [4] in a line: Ratio of intravenous to oral integrated area under the concentration vs time curve, for compound in dog plasma. The format is ADME, organism-based, Canis lupus familiaris.
The target of data set [5] is T4, Serine protease 1. The data set is described as follows: Binding affinity for human pancreatic trypsin; […].
Data set [6] is described as follows: +Ratio of intravenous to oral integrated area under the concentration vs time curve, for compound in dog plasma. The format is ADME, organism-based, Canis lupus familiaris.
In a further data set the target is Acetylcholinesterase (Homo sapiens, UniProt P22303). The data set is described as follows: Binding affinity for human erythrocyte Acetylcholinesterase; No inhibition at 188 uM (highest concentration tested).
Acetylcholinesterase, sequence (P22303 whole entry): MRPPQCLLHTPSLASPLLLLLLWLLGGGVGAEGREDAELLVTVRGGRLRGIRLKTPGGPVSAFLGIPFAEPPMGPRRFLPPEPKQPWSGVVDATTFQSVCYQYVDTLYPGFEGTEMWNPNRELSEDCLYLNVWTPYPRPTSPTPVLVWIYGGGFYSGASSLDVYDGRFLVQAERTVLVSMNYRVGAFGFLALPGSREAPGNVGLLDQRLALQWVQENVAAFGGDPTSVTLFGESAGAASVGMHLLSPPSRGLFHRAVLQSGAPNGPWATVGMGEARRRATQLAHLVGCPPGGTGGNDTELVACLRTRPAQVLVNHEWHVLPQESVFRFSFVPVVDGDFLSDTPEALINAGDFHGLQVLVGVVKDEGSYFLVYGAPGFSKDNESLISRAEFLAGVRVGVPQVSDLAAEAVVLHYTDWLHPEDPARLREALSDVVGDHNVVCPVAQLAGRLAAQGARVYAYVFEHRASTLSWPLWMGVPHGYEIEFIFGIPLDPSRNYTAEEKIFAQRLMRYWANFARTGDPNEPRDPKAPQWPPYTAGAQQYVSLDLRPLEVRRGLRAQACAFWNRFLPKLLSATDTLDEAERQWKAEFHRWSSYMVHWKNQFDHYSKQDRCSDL

As for `COC(=O)N[C@H](C(=O)N1CCC[C@H]1C(=O)N[C@H](C(=O)C(F)(F)F)C(C)C)C(C)C` (Moc-Val-Pro-Val-CF3), the Ki on Neutrophil elastase was 0.013 µM; at Monoamine oxidase it was “No inhibition”; at Cathepsin G, “No inhibition”; at Serine protease 1 [2], 66.6 µM; in data set [3], “No inhibition”. Further, the Tmax in [1] was 30 min. The bioavailability in data set [4] was determined as 70%.

As to `COc1ccc(C(=O)N[C@H](C(=O)N2CCC[C@H]2C(=O)N[C@H](C(=O)C(F)(F)F)C(C)C)C(C)C)cc1` (stereo in doubt; 1k), the Ki entry on Monoamine oxidase, at Serine protease 1 [5] and on Acetylcholinesterase was “No inhibition” each time. Also, the Tmax in data set [1] came to 15 min. In data set [6], the bioavailability is 39%.

These data come from ChEMBL document CHEMBL1130170, “Orally active trifluoromethyl ketone inhibitors of human leukocyte elastase” (J Med Chem, 1997).
